Source: the NIST ThermoML archive (doi:10.1021/je100175j)

Tests used:
[1] = Molar enthalpy of transition or fusion; details: Crystal; DSC
[2] = for Triple point temperature: DTA

CN(C)C(=O)c1ccccc1 [N,N-dimethylbenzamide]
Details | Molar enthalpy of transition or fusion [kcal/mol]
[1] | 5.07

[2], Crystal
Details | vapor or sublimation pressure [kPa]
297.04 K | 0.00054
299.03 K | 0.00069
301.02 K | 0.00086
303.02 K | 0.0011
305 K | 0.00138
307 K | 0.00171
308.98 K | 0.00215
310.98 K | 0.00269
312.98 K | 0.00336
314.98 K | 0.00418

[2], Liquid, Closed cell (Static) method
Details | vapor or sublimation pressure [kPa]
301.98 K | 0.00134
303.99 K | 0.00162
305.97 K | 0.00195
307.96 K | 0.00232
310.43 K | 0.00289
312.3 K | 0.00343
314 K | 0.00399
316 K | 0.00472
317.97 K | 0.0056
319.95 K | 0.00658
321.94 K | 0.00776
323.93 K | 0.00909
325.88 K | 0.01066
327.91 K | 0.01239
329.85 K | 0.01439
331.88 K | 0.01676
333.84 K | 0.01949
335.85 K | 0.02238
337.8 K | 0.02598
339.82 K | 0.02969
341.77 K | 0.03432
343.8 K | 0.03916
345.73 K | 0.04503
347.77 K | 0.05151
349.68 K | 0.05866
351.75 K | 0.06697
353.64 K | 0.07571
355.7 K | 0.08611
357.62 K | 0.09722
359.68 K | 0.1102
361.66 K | 0.1244

Details | Triple point temperature [K]
[2], Crystal | 316.9

CNC(=O)c1ccccc1 [N-methylbenzamide]
Details | Molar enthalpy of transition or fusion [kcal/mol]
[1] | 4.45

[2], Liquid, Closed cell (Static) method
Details | vapor or sublimation pressure [kPa]
322.88 K | 0.00067
324.94 K | 0.00083
326.92 K | 0.00099
328.89 K | 0.00117
330.88 K | 0.0014
332.86 K | 0.00166
334.86 K | 0.00201
336.84 K | 0.00241
338.82 K | 0.00284
340.8 K | 0.00336
342.8 K | 0.00398
344.8 K | 0.0047
346.77 K | 0.00547
348.77 K | 0.0064
350.75 K | 0.00753
352.74 K | 0.00861
354.74 K | 0.01013
356.7 K | 0.01168
358.72 K | 0.01359
360.66 K | 0.01572
362.68 K | 0.01812
364.63 K | 0.02093
366.62 K | 0.02394
368.59 K | 0.0275
370.59 K | 0.03148
372.57 K | 0.03612
374.56 K | 0.04095
376.53 K | 0.04725
378.51 K | 0.05325
380.49 K | 0.06051
382.47 K | 0.06884
384.46 K | 0.07804
386.43 K | 0.08821
388.4 K | 0.101

[2], Crystal
Details | vapor or sublimation pressure [kPa]
324.88 K | 0.0005
326.83 K | 0.00063
328.93 K | 0.0008
330.82 K | 0.00098
332.75 K | 0.00121
334.8 K | 0.00152
336.82 K | 0.00189
338.85 K | 0.00235
340.81 K | 0.00284
342.75 K | 0.00348
344.79 K | 0.00426
345.79 K | 0.00471
346.8 K | 0.00528
347.77 K | 0.00575
348.76 K | 0.00631

Details | Triple point temperature [K]
[2], Crystal | 347.41
